Test results published in patent US10858344B2, “Hydantoin containing deoxyuridine triphosphatase inhibitors” (CV6 Therapeutics (NI) Limited, priority 2016, dated 2020).
pIC50: −log10 of the molar value.

Legend:
[1] = tested on: colorectal (HCT116), breast (MCF-7) and non-small cell lung (H1299, A549, H358 and H460) cell line models; assay: Colony forming assay; assay type: cell-based; settings: FUdR between 0.5 and 2.5 μmol/L; all cell lines evaluated
Protocol: Colony forming assay showing the ability of colon (SW620, HCT116), non-small cell lung (A549, H460, H1299 and H358) and breast (MCF7) cancer cells to survive and proliferate following transient 24 hour exposure to test compounds, FUdR and combinations are determined. Specifically, cells are seeded at densities between 50 and 100 cells/well in 24-well plates. Twenty-four hours later, cells are treated with increasing concentrations of a rtest compound, a fixed dose of FUdR and combinations of these. After 24 hours, drug is removed, cells are rinsed and allowed to outgrow for 10-14 days. At the conclusion of the outgrowth, cells are fixed in 60% ice cold methanol and stained with 0.1% crystal violet, scanned and counted. Data is presented as percentage of untreated controls (mean±SD). Fraction affected and combination indexes are calculated according to the method of Chou and Talalay where <1 is indicative of a synergistic drug interaction.
Colony forming assays are performed to evaluate the effectiveness of test compounds alone and in combination with the fluoropyrimidine thymidylate synthase (TS) inhibitor fluorodeoxyuridine (FUdR) at reducing cancer cell viability in colorectal (HCT116), breast (MCF-7) and non-small cell lung (H1299, A549, H358 and H460) cell line models. […]

[2] = target: recombinant human deoxyuridine nucleotidohydrolase (dUTPase) (Homo sapiens (Human), UniProt P33316); assay: fluorescence-based dUTPase inhibition assay; assay type: biochemical; settings: for % relative inhibition vs. positive control: mean over three concentrations, typically 100, 50 and 25 μmol/L, compared to in-run positive control
Excerpt: Recombinant human deoxyuridine nucleotidohydrolase (dUTPase) is expressed and purified as described in Ladner R D, Carr S A, Huddleston M J, McNulty D E, Caradonna S J. J Biol Chem. 1996 Mar. 29; 271(13):7752-7. All drugs stocks are aliquoted and diluted as appropriate prior to use. The oligonucelotide primer, templates and fluorophore- and quencher-labeled detection probes are synthesized by Integrated DNA Technologies (Coralville, Iowa), subjected to polyacrylamide gel electrophoresis purification and reconstituted in Omnipur sterile nuclease-free water (EMD Chemicals USA, Gibbstown N.J.) at a stock concentration of 100 μmol/L. The two non-emissive (dark) quenching molecules incorporated into the detection probes include the Iowa black fluorescein quencher (IBFQ; absorption max 531 nm) and ZEN (non-abbreviation; absorption max 532 nm). The fluorescent label utilized is 6-FAM (5′-carboxyfluorescein; excitation max.=494 nm, emission max.=520 nm). Probes are further diluted to a working stock of 10 μmol/L and aliquoted to avoid repeated freeze/thaw cycles. AmpliTaq Gold DNA Polymerase, GeneAmp 10×PCR Buffer 2, MgCl2 and MicroAmp Optical 96-well Reaction Plates are purchased from Applied Biosystems (Carlsbad, Calif.). dNTPs are purchased individually at stock concentrations of 100 mmol/L from New England Biolabs at HPLC-certified >99% purity (Ipswich, Mass.).
Reaction mixtures contained primer, probe and template at an equimolar final concentration of 0.4 μmol/L. Magnesium chloride (MgCl2) is included at a final concentration of 2 mmol/L. Non-limiting dNTPs are included in the reaction mix in excess at a final concentration of 100 μmol/L (dUTP/dTTP is excluded). AmpliTaq Gold DNA polymerase is added at 0.875 U/reaction, 2.5 μl of 10×PCR buffer 2 added and nuclease-free ddH2O added to a final reaction volume of 25 μl. For dUTP inhibition analysis, the volume of ddH2O is further modified to accommodate an additional 1 μl of dUTPase (10 ng/μl) and 1 μl of inhibitor or DMSO control. Thermal profiling and fluorescence detection is performed using a customized thermal program on board a Roche Lightcycler LC480 Instrument II. For analysis of dNTPs, the thermal profile consisted of an 8 min 37° C. step followed by a 10 min 95° C. step to ‘hot-start’ the Taq polymerase and a primer extension time of up to 30 min at 60° C. Raw fluorescence spectra for 6-FAM is measured at specified time intervals to follow assay progression on board a Roche LightCycler 480 Software Version 1.5 and exported and analyzed in Microsoft Excel (Microsoft, Redmond Wash.) and Prism (GraphPad Software, La Jolla Calif.). Fluorescence values for blank reactions (limiting dNTP omitted) are subtracted to give normalized fluorescence units (NFU) to account for background fluorescence.
Test compounds are screened in a fluorescence-based assay. The assay employs a DNA polymerase-based approach utilizing an oligonucleotide template with 3 distinct regions: a 3′ primer binding region, a mid-template dUTP/thymidine triphosphate (TTP) detection region and a 5′ 6-[…] (FAM)-labeled probe binding region that incorporates a black hole quenching moiety. During the reaction, the probe and primer hybridize to the oligonucleotide template to form the template:primer:probe complex. When Taq polymerase binds to the primer in the TPP complex and dUTP is present, successful extension of the nascent strand occurs and the inherent 5′ to 3′ exonuclease activity of Taq polymerase cleaves and displaces the 6-FAM-labeled probe in a 5′ to 3′ direction, releasing the 6-FAM fluorophore from its proximity to the three quenchers. This displacement effectively disrupts the Förster resonance energy transfer (FRET) and the resulting fluorescence detected upon excitation is directly proportional to the amount of the dUTP available in the assay for incorporation. […]

[3] = tested on: colorectal (HCT116 and SW620) cell line models; assay: MTS growth inhibition assay; assay type: cell-based; settings: 5-FU between 0 and 100 μmol/L; both colorectal cancer cell lines
Protocol: The Cell Titer AQueous MTS assay (Promega) is carried out according to the manufacturers guidelines. […] The combination effect is determined by the combination index (CI) method utilizing Calcusyn software (Biosoft, Ferguson, Mo.). Fraction affected (FA) is calculated from the percent growth inhibition: FA=[…]. CI values <1, synergism; 1-1.2, additive and >1.2, antagonism.
MTS growth inhibition assays are performed to evaluate the effectiveness of the test compounds alone and in combination with the fluoropyrimidine thymidylate synthase (TS) inhibitor 5-fluorouracil (5-FU) at inhibiting the growth of colorectal (HCT116 and SW620) cell line models. […] Simultaneous treatment with increasing concentrations of 5-FU and a test compound at fixed concentrations of 25 μmol/L is determined.

Sequence of recombinant human deoxyuridine nucleotidohydrolase (dUTPase) (P33316 other isoform, or with tags, fused parts or gaps): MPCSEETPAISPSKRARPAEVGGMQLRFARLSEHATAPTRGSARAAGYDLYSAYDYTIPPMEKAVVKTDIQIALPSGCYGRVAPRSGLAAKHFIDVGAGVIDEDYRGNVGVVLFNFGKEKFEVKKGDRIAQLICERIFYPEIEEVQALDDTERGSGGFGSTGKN

Row | SMILES | % relative inhibition vs. positive control [2] [%] | other results
1 | O=c1[nH]c(=O)n([C@H]2C[C@H](O)[C@@H](CO)O2)cc1F [FUdR, fluorodeoxyuridine] | – | colonies formed [1]: dose-dependent decreases in colonies formed
2 | CC(C)COc1cc([C@@H](C)NS(=O)(=O)CCCCCN2C(=O)NC(=O)[C@H]2C)ccc1F [Compound 108b, N—((R)-1-(4-fluoro-3-isobutoxyphenyl)ethyl)-5-((R)-5-methyl-2,4-dioxoimidazolidin-1-yl)pentane-1-sulfonamide] | 94 | –
3 | C[C@@H](NS(=O)(=O)CCCCCN1CC(=O)NC1=O)c1ccc(F)c(OCC2CCOCC2)c1 [Example 100, (R)-5-(2,4-dioxoimidazolidin-1-yl)-N-(1-(4-fluoro-3-((tetrahydro-2H-pyran-4-yl)methoxy)phenyl)ethyl) pentane-1-sulfonamide] | 5 | pIC50 [2]: 4.85
4 | C[C@@H](NS(=O)(=O)CC/C=C/CN1C(=O)NC(=O)C1(C)C)c1ccc(F)c(OCC2CC2)c1 [Example 112, (R,E)-N-(1-(3-(cyclopropylmethoxy)-4-fluorophenyl)ethyl)-5-(5,5-dimethyl-2,4-dioxoimidazolidin-1-yl)pent-3-ene-1-sulfonamide] | 50 | –
5 | O=C1CN(C/C=C/CCCNS(=O)(=O)c2cccc(OCC3CC3)c2)C(=O)N1 [Example 79, (E)-3-(cyclopropylmethoxy)-N-(6-(2,4-dioxoimidazolidin-1-yl)hex-4-en-1-yl)benzenesulfonamide] | 139 | –
6 | C[C@@H](NS(=O)(=O)CCCCCN1CC(=O)NC1=O)c1cccc(OC2CCCC2)c1 [Example 89, (R)—N-(1-(3-(cyclopentyloxy)phenyl)ethyl)-5-(2,4-dioxoimidazolidin-1-yl)pentane-1-sulfonamide] | 93 | pIC50 [2]: 6.10
7 | O=c1[nH]cc(F)c(=O)[nH]1 [5-FU, 5-fluorouracil] | – | growth inhibition [3]: dose-dependent increases in growth inhibition
8 | CC1(C)C(=O)NC(=O)N1C/C=C/CCS(=O)(=O)NC1(c2ccc(F)c(OCC3CC3)c2)CC1 [119a, (E)-N-(1-(3-(cyclopropylmethoxy)-4-fluorophenyl)cyclopropyl)-5-(5,5-dimethyl-2,4-dioxoimidazolidin-1-yl)pent-3-ene-1-sulfonamide] | 10 | –
